# Data from ChEMBL document CHEMBL1136450, “Synthesis and biological activity of 2-carbomethoxy-3-catechol-8-azabicyclo[3.2.1]octanes” (Bioorg Med Chem Lett, 2003).
# Legend:
# Type in all cases: cell-based, HEK293
# [1] = molecular target: T1, Sodium-dependent dopamine transporter (Homo sapiens, UniProt Q01959)
# [2] = molecular target: T2, Sodium-dependent serotonin transporter (Homo sapiens, UniProt P31645)
# [3] = molecular target: T3, Sodium-dependent noradrenaline transporter (Homo sapiens, UniProt P23975)
# [4] = molecular target: T3, Sodium-dependent noradrenaline transporter; assay: Inhibition of [3H]norepinephrine uptake in HEK cells expressing human NET
# [5] = molecular target: T2, Sodium-dependent serotonin transporter; assay: Inhibition of [3H]5-HT uptake in HEK cells expressing human SERT
# [6] = molecular target: T1, Sodium-dependent dopamine transporter; assay: Inhibition of [3H]dopamine uptake in HEK cells expressing human DAT
# T1 sequence (Q01959 whole entry): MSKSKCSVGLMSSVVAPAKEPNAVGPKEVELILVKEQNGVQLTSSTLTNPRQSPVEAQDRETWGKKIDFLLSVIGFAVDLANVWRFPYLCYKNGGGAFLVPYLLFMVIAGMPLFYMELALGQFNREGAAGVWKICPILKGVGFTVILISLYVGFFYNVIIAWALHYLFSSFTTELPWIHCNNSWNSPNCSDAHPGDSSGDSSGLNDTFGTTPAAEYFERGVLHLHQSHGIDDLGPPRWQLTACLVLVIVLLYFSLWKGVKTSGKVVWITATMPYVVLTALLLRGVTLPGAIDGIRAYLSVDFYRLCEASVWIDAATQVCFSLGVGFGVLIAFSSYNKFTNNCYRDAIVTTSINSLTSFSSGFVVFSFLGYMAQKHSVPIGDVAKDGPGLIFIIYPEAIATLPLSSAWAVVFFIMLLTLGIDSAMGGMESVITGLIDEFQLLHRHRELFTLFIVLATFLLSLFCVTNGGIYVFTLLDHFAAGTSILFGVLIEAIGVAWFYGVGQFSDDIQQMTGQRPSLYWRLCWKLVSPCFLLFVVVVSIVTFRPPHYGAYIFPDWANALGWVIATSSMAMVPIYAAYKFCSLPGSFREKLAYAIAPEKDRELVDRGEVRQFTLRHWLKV
# T3 sequence (P23975 whole entry): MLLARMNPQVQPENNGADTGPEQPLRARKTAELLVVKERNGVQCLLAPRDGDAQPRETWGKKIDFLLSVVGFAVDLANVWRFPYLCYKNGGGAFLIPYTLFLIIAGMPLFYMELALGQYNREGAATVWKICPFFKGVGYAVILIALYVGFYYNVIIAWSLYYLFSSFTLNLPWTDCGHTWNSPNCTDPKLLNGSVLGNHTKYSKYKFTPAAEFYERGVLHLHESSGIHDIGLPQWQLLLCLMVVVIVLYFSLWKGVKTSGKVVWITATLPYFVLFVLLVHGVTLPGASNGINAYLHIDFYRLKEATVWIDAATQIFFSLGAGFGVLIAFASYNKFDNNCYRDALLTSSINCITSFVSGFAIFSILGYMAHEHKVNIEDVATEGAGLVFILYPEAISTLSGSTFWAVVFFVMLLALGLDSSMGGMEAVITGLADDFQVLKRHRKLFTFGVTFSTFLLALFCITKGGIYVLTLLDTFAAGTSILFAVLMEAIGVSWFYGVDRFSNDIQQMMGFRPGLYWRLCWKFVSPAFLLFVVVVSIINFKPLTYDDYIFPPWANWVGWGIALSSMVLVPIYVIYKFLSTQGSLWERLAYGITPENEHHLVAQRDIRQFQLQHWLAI
# T2 sequence (P31645 whole entry): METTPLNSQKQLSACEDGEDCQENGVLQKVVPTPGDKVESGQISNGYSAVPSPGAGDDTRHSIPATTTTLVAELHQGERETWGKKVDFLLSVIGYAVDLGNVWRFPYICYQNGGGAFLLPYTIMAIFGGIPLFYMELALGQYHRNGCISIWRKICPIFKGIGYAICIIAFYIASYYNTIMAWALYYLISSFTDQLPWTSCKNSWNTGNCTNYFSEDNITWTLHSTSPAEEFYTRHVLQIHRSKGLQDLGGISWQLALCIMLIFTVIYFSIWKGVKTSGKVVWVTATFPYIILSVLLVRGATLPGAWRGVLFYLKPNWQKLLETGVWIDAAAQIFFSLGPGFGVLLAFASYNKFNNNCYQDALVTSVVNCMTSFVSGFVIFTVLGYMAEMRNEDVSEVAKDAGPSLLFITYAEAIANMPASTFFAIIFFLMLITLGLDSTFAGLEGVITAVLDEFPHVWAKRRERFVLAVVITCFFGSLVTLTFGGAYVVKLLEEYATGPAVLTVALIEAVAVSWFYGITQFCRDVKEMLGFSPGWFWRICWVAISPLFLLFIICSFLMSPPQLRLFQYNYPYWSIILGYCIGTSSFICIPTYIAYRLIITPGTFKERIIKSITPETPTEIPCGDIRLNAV
Compound,Ki [1] [nM],Ki [2] [nM],Ki [3] [nM],IC50 [4] [nM],IC50 [5] [nM],IC50 [6] [nM],Ki ([1]; hek293) [nM],Ki ([3]; hek293) [nM]
COC(=O)C1C(c2ccc(C(C)=O)c(C(C)=O)c2)CC2CCC1N2C (stereo in doubt; 11),> 10000,704,> 10000,–,–,–,–,–
COC(=O)C1C(c2ccc(OC)c(OC)c2)CC2CCC1N2C (stereo not given),1540,46,4500,1450,23,1570,–,–
COC(=O)C1=C(c2ccc(C(C)=O)c(C(C)=O)c2)CC2CCC1N2C (stereo not given),> 10000,> 10000,> 10000,–,–,–,–,–
COC(=O)C1C(c2ccc(O)c(O)c2)CC2CCC1N2C (stereo in doubt; 8),970,10000,3060,173,–,406,–,–
COC(=O)C1C(c2ccc(C(C)=O)c(C(C)=O)c2)CC2CCC1N2C (stereo in doubt; 10),–,168,–,–,330,–,> 10000,> 10000
COC(=O)C1C(c2ccc(O)c(O)c2)CC2CCC1N2C (stereo in doubt; 7),1370,271,2960,122,308,507,–,–
COC(=O)C1=C(c2ccc(O)c(O)c2)CC2CCC1N2C (stereo not given),> 10000,> 10000,> 10000,–,–,–,–,–
